From ChEMBL document CHEMBL5038670, “Design, Synthesis, and Biological Evaluation of Apcin-Based CDC20 Inhibitors” (ACS Med Chem Lett, 2022)
Calls of active or inactive are those of the source. No cut-off for these calls is given here.

How the values were obtained:
MDA-MB-231 [1] = assay: Cytotoxicity against human TNBC MDA-MB-231 cells assessed as cell viability measured after 72 hrs; type: functional, cell-based; settings: MDA-MB-231, 72 h
MDA-MB-468 [2] = assay: Cytotoxicity against human TNBC MDA-MB-468 cells assessed as cell viability measured after 72 hrs; type: functional, cell-based; settings: MDA-MB-468, 72 h
MDA-MB-231 [3] = assay: Cytotoxicity against human TNBC MDA-MB-231 cells assessed as cell viability at 300 uM measured after 72 hrs relative to control; type: functional; settings: for viability at 300 µM: read-out: Activity
MDA-MB-468 [4] = assay: Cytotoxicity against human TNBC MDA-MB-468 cells assessed as cell viability at 300 uM measured after 72 hrs relative to control; type: functional; settings: for viability at 300 µM: read-out: Activity
MDA-MB-468 [5] = assay: Upregulation of cyclin B1 level in human TNBC MDA-MB-468 cells at 10 uM measured after 24 hrs by western blot analysis relative to control; type: functional, cell-based
MDA-MB-468 [6] = assay: Downregulation of cyclin B1 level in human TNBC MDA-MB-468 cells at 30 uM measured after 24 hrs by western blot analysis relative to control; type: functional, cell-based
MDA-MB-468 [7] = assay: Downregulation of se-curin level in human TNBC MDA-MB-468 cells at 10 uM measured after 24 hrs by western blot analysis relative to control; type: functional, cell-based
MDA-MB-468 [8] = assay: Downregulation of se-curin level in human TNBC MDA-MB-468 cells at 30 uM measured after 24 hrs by western blot analysis relative to control; type: functional, cell-based
MDA-MB-468 [9] = assay: Effect on BimEL expression in human TNBC MDA-MB-468 cells at 10 to 30 uM measured after 24 hrs by western blot analysis relative to control; type: functional, cell-based; settings: dose 10-30 µM
MDA-MB-468 [10] = assay: Effect on BimL expression in human TNBC MDA-MB-468 cells at 10 to 30 uM measured after 24 hrs by western blot analysis relative to control; type: functional, cell-based; settings: dose 10-30 µM
MDA-MB-468 [11] = assay: Effect on BimS expression in human TNBC MDA-MB-468 cells at 10 to 30 uM measured after 24 hrs by western blot analysis relative to control; type: functional, cell-based; settings: dose 10-30 µM
MDA-MB-468 [12] = assay: Downregulation of CDC20 level in human TNBC MDA-MB-468 cells at 10 uM measured after 24 hrs by western blot analysis relative to control; type: functional, cell-based
MDA-MB-468 [13] = assay: Downregulation of CDC20 level in human TNBC MDA-MB-468 cells at 30 uM measured after 24 hrs by western blot analysis relative to control; type: functional, cell-based
MDA-MB-468 [14] = assay: Antitumor activity against human MDA-MB-468 cells assessed as induction of cell death at 30 uM measured after 24 hour relative to control; type: functional, cell-based
Sus scrofa [15] = species on record: Sus scrofa; assay: Inhibition of porcine brain tubulin polymerization at 10 uM measured for 60 mins by spectrophotometric method relative to control
MDA-MB-468 [16] = assay: Upregulation of cyclin B1 level in human TNBC MDA-MB-468 cells at 80 uM measured after 24 hrs by western blot analysis relative to control; type: functional, cell-based
Sus scrofa [17] = species on record: Sus scrofa; assay: Induction of porcine brain tubulin polymerization at 10 uM measured for 60 mins by spectrophotometric method relative to control; type: tissue-based

Row | SMILES | IC50 (MDA-MB-231 [1]) [µM] | IC50 (MDA-MB-468 [2]) [µM] | other results
1 | COc1ccc(-c2csc(NC(NC(=O)OCCn3c([N+](=O)[O-])cnc3C)C(F)(F)Cl)n2)cc1O (stereo unspecified) | 224 | 82.5 | 
2 | CC(=O)Nc1ccc(-c2csc(NC(NC(=O)OCCn3c([N+](=O)[O-])cnc3C)C(F)(F)Cl)n2)cc1 (stereo unspecified) | 75.7 | 66.5 | 
3 | COC(=O)c1ccc(-c2csc(NC(NC(=O)OCCn3c([N+](=O)[O-])cnc3C)C(F)(F)Cl)n2)cc1 (stereo unspecified) | 34.5 | 18.7 | 
4 | Cc1ncc([N+](=O)[O-])n1CCOC(=O)NC(Nc1nc2ccccc2[nH]1)C(F)(F)Cl (stereo unspecified) |  |  | viability at 300 µM (MDA-MB-231 [3]): 70%; viability at 300 µM (MDA-MB-468 [4]): 47%
5 | Cc1ncc([N+](=O)[O-])n1CCOC(=O)NC(Nc1ncccn1)C(F)(F)Cl (stereo unspecified) |  |  | viability at 300 µM (MDA-MB-231 [3]): 52%; viability at 300 µM (MDA-MB-468 [4]): 40%
6 | COc1ccc(-c2csc(NC(NC(=O)OCCN3CCOCC3)C(F)(F)Cl)n2)cc1 (stereo unspecified) | 52.6 | 47.5 | 
7 | Cc1sc(NC(NC(=O)OCCn2c([N+](=O)[O-])cnc2C)C(F)(Cl)Cl)nc1-c1ccc(OC(F)(F)F)cc1 (stereo unspecified) | 10.8 | 13.2 | Activity (MDA-MB-468 [5]): Active; Activity (MDA-MB-468 [6]): Active; Activity (MDA-MB-468 [7]): Active; Activity (MDA-MB-468 [8]): Active; Activity (MDA-MB-468 [9]): Dose-Dependent Effect; Activity (MDA-MB-468 [10]): Dose-Dependent Effect; Activity (MDA-MB-468 [11]): Dose-Dependent Effect; Activity (MDA-MB-468 [12]): inactive; Activity (MDA-MB-468 [13]): Active; Activity (MDA-MB-468 [14]): Active
8 | Cc1ncc([N+](=O)[O-])n1CCOC(=O)NC(Nc1nc2c(F)cc(F)cc2s1)C(F)(F)Cl (stereo unspecified) | 106 | 101 | 
9 | Cc1ncc([N+](=O)[O-])n1CCOC(=O)NC(Nc1c(Cl)nc(N)nc1Cl)C(F)(F)Cl (stereo unspecified) |  |  | Activity (MDA-MB-231 [3]): inactive; viability at 300 µM (MDA-MB-468 [4]): 52%
10 | Cc1ncc([N+](=O)[O-])n1CCOC(=O)NC(Nc1nc2ccc(Cl)cc2s1)C(F)(F)Cl (stereo unspecified) | 44.5 | 42.2 | 
11 | Cc1sc(NC(NC(=O)OCCN2CCOCC2)C(F)(F)Cl)nc1-c1ccc(OC(F)(F)F)cc1 (stereo unspecified) | 14.2 | 32.6 | 
12 | Cc1ncc([N+](=O)[O-])n1CCOC(=O)NC(Nc1nc2ccccc2s1)C(F)(F)Cl (stereo unspecified) |  |  | viability at 300 µM (MDA-MB-231 [3]): 66%; viability at 300 µM (MDA-MB-468 [4]): 21%
13 | COC(=O)c1sc(NC(NC(=O)OCCn2c([N+](=O)[O-])cnc2C)C(F)(F)Cl)nc1-c1ccccc1 (stereo unspecified) | 42.1 | 23.5 | 
14 | COc1ccc(-c2csc(NC(NC(=O)OCCn3c([N+](=O)[O-])cnc3C)C(F)(F)Cl)n2)cc1 (stereo unspecified) | 63.1 | 49.2 | 
15 | Cc1ncc([N+](=O)[O-])n1CCOC(=O)NC(Nc1nc2ccc([N+](=O)[O-])cc2s1)C(F)(F)Cl (stereo unspecified) | 37.8 | 40.1 | 
16 | Cc1ncc([N+](=O)[O-])n1CCOC(=O)NC(Nc1nc(-c2ccc(C#N)c(F)c2)cs1)C(F)(F)Cl (stereo unspecified) | 24.1 | 14.4 | inhibition (Sus scrofa [15]): inactive
17 | Cc1sc(NC(NC(=O)OCCn2c([N+](=O)[O-])cnc2C)C(F)(F)Cl)nc1-c1ccc(OC(F)(F)F)cc1 (stereo unspecified) | 12 | 11.4 | inhibition (Sus scrofa [15]): inactive; Activity (MDA-MB-468 [6]): Active; Activity (MDA-MB-468 [8]): Active; Activity (MDA-MB-468 [9]): Dose-Dependent Effect; Activity (MDA-MB-468 [10]): Dose-Dependent Effect; Activity (MDA-MB-468 [11]): Dose-Dependent Effect; Activity (MDA-MB-468 [12]): Active; Activity (MDA-MB-468 [13]): Active; Activity (MDA-MB-468 [14]): Active
18 | COc1ccc(-c2csc(NC(NC(=O)OCCn3c([N+](=O)[O-])cnc3C)C(F)(Cl)Cl)n2)cc1 (stereo unspecified) | 63.5 | 39.3 | 
19 | Cc1ncc([N+](=O)[O-])n1CCOC(=O)NC(Nc1nc2ccc(F)cc2s1)C(F)(F)Cl (stereo unspecified) | 80.7 | 73.7 | 
20 | Cc1ncc([N+](=O)[O-])n1CCOC(=O)NC(Nc1ncccn1)C(Cl)(Cl)Cl (stereo unspecified) | 91.4 | 53.5 | Activity (MDA-MB-468 [16]): Active
21 | Cc1ncc([N+](=O)[O-])n1CCOC(=O)NC(Nc1nc(-c2ccc(Cl)cc2Cl)cs1)C(F)(F)Cl (stereo unspecified) | 21.4 | 14.4 | 
22 | Cc1ncc([N+](=O)[O-])n1CCOC(=O)NC(Nc1nc2ccc(S(C)(=O)=O)cc2s1)C(F)(F)Cl (stereo unspecified) | 230 | > 300 | 
23 | Cc1sc(NC(NC(=O)OCCn2c([N+](=O)[O-])cnc2C)C(F)(F)Cl)nc1-c1ccc(Cl)cc1 (stereo unspecified) | 12.6 | 10.1 | inhibition (Sus scrofa [15]): inactive
24 | Cc1ncc([N+](=O)[O-])n1CCOC(=O)NC(Nc1nc2ccc(OC(F)(F)F)cc2s1)C(F)(F)Cl (stereo unspecified) | 21.2 | 11.2 | inhibition (Sus scrofa [15]): inactive
25 | Cc1ncc([N+](=O)[O-])n1CCOC(=O)NC(N1CCOCC1)C(F)(F)Cl (stereo unspecified) |  |  | Activity (MDA-MB-231 [3]): inactive; Activity (MDA-MB-468 [4]): inactive
26 | Cc1ncc([N+](=O)[O-])n1CCOC(=O)NC(Nc1nc(-c2ccc(OC(F)(F)F)cc2)cs1)C(F)(F)Cl (stereo unspecified) | 12 | 23.3 | 
27 | CC(=O)O[C@H]1C(=O)[C@@]2(C)[C@H]([C@H](OC(=O)c3ccccc3)[C@]3(O)C[C@H](OC(=O)[C@H](O)[C@@H](NC(=O)c4ccccc4)c4ccccc4)C(C)=C1C3(C)C)[C@]1(OC(C)=O)CO[C@@H]1C[C@@H]2O |  |  | inhibition (Sus scrofa [17]): Active
28 | Cc1ncc([N+](=O)[O-])n1CCOC(=O)NC(Nc1nc(-c2ccc(S(C)(=O)=O)cc2)cs1)C(F)(F)Cl (stereo unspecified) | > 300 | 103 | 
29 | Cc1ncc([N+](=O)[O-])n1CCOC(=O)NC(Nc1nc2ccc(C#N)cc2s1)C(F)(F)Cl (stereo unspecified) | 80.8 | 116 | 
30 | Cc1ncc([N+](=O)[O-])n1CCOC(=O)NC(Nc1ncc(C#N)cn1)C(F)(F)Cl (stereo unspecified) |  |  | Activity (MDA-MB-468 [4]): inactive
